# Reference: patent publication US6413937B1, “Combinations for use in increasing the potency of a substrate for multidrug resistance related protein” (Dublin City University and Enterprise Ireland, priority 1996, dated 2002)
# Tests used:
# [1] = test system: GST prepared from DLKP cells; assay: total GST assay with 1-chloro-2,4-dinitrobenzene; type: biochemical, human
# Description: The other NSAIDs were tested in a total GST assay (Habig, W. H., and Jakoby, W. B., (1981); Methods Enzymol., 77: 218-231). Total cellular GST activity was assayed, using 1-chloro-2,4-dinitrobenzene as a substrate, according to the method of Habig, W. H., and Jakoby, W. B., (1981); supra. Due to spectrophotometric interference at 340 nm, caused by the majority of the NSAIDs, the assays were all performed at 360 nm, without any apparent effect on the rate of the control reaction The results are shown in Table 5.
# MRP-specific substrates = assay: screen for enhancement of toxicity of MRP substrates by NSAIDs; type: cell-based; details: summary statements
# A549 cell line = assay: miniaturised in vitro colorimetric cell survival assay (acid phosphatase end-point), A549; type: cell-based, human
# Description: (§1) All the results presented in this Example for the DLKP, A549 and OAW42-SR cell lines were derived using the same miniaturised in vitro calorimetric assay system. On Day 1 of the assay 1000 cells/well/100 μl were plated into 96-well plates. Cells were allowed to attach overnight and cell viability was visually assessed. […] NSAID plus chemotherapeutic drug) to be analysed were added onto the cells. The individual drugs were added separately in 50 μl quantities (4× stocks, to take into account the dilution effect of having 200 μl final volume in each well). The drugs were left on the cells for five further days (Day 7) and cell number was determined using the acid phosphatase end-point assay which uses p-nitrophenol phosphate as substrate (Martin, A. and Clynes, M. (1991) In Vitro Dev. Biol., 27A, 183-184). On Day 7 the culture medium was removed from the cells and they were washed once with phosphate buffered saline (PBS). […] After the incubation period 50 μl of 1N NaOH was added to each well to develop the colour. The plates were then read at 405 nm (reference 620 nm) on an ELISA plate-reader. […] All results are the cell survival means ±S.D. from a minimum of three experiments.
# DLKP cell line = assay: miniaturised in vitro colorimetric cell survival assay (acid phosphatase end-point), DLKP; type: cell-based, human
# Description: as §1
# MRP pump = molecular target: T1, MRP pump (Homo sapiens, UniProt P33527); assay: ATP-dependent transport of [3H]LTC4 into inside-out plasma membrane vesicles from HL60ADR cells; type: biochemical; details: for MRP-pump inhibitory activity: conclusion from Table 4
# T1 construct: inside-out plasma membrane vesicles prepared from HL60ADR cells; endogenous in cells; host or cells: HL60ADR cells (plasma membrane vesicles)
# Description: To determine if the NSAIDs were acting directly on the MRP pump the uptake of [^3H]LTC4 into inside-out plasma membrane vesicles prepared from HL60ADR cells was examined using a rapid filtration procedure (Ishikawa,T., et al. (1994); J. Biol. Chem. 269 (46); 29085-29093). ATP-dependent transport of [^3H]LTC4 into the membrane vesicles was measured by a rapid filtration method using a Millipore sampling manifold. The membrane vesicles were thawed at 37° C. before use and kept on ice. The reaction components consisted of 0.25 M sucrose/10 mM Tris.HCl pH 7.4/1 mM ATP/10 mM MgCl2/10 mM creatine phosphate/ 110 μg/ml creatine kinase and 10 nM [^3H]LTC4, with 50 μg of the inside-out vesicle preparation, in a final volume of 110 μl. This suspension was incubated at 37° C., with gentle mixing, and aliquots, 20 μl, were taken at the indicated points. Those aliquots were diluted in 1 ml of ice-cold incubation buffer before being applied to 0.22 μm Millipore GSWP nitrocellulose filters, pre-soaked in ice-cold incubation buffer, under suction. The filters were subsequently washed with 3 ml ice-cold incubation buffer, and absorbed radioactivity was measured using a scintillation counter (Beckman). In control experiments ATP was replaced with 5μ-AMP to determine the ATP-dependent transport.
# DLKP-7 cells = assay: adriamycin efflux from loaded cells, HPLC; type: cell-based
# Description: DLKP-7 cells were seeded into 75 cm^2 flasks at 0.5×10^6 cells/10 ml ATCC medium. The cells were left for 2 days, the ATCC medium was removed and fresh medium containing adriamycin (0.5 μg/ml) was added. Following a 2 hour incubation this medium was removed, the flasks were washed twice with PBS, 10 ml ATCC medium or ATCC medium containing the test NSAID was added, and the cells were incubated for a further 4 hr. The cells were trypsinised and the pellet was frozen at −20° C. Duplicate flasks for each time point were prepared. The NSAIDs used were indomethacin 10 μg/ml and piroxicam 20 μg/ml.
# The amount of adriamycin in the cells was quantified using liquid-liquid extraction and reverse-phase HPLC analysis. The frozen cell pellets were thawed and resuspended in […] of water/100 μl of 33% silver nitrate and mixed for 5 min. 300 μl of methanol, containing 1.5 μg of daunorubicin as an internal standard (IS), and 1.3 ml of acetonitrile were then added and the tubes mixed for a further 5 min. The mixture was transferred to glass tubes and kept at 4° C. for 1 hr. The tubes were then centrifuged at 1000 g for 15 min. to pellet any solid material. 1.1 ml of the supernatant was removed to HPLC autosampler vials (Labquip, Dublin, Ireland). The solvent was evaporated off at room temperature under a stream of nitrogen gas.
# The extract was resuspended in 50 μl of mobile phase 1 (MP1): 32 ml of 0.1 M phosphoric acid mixed with 244 ml of ultrapure water, pH: 2.3 (adjusted upwards with a few drops of 1N potassium hydroxide) to which 124 ml of acetonitrile was added and the final mixture was degassed in a sonicating bath for 5 min. The second mobile phase (MP2) consisted of acetonitrile. The resuspended sample (20 μl) was automatically injected into the HPLC system. The HPLC system comprised a Beckman System Gold 507 autosampler, 125 pump and 166 detector. The MP was pumped through a C18 reversed-phase Prodigy 5 μm particle size ODS-3 column (Phenomenex, Macclesfield, England) (dimensions 150×4.6mm) and absorbance was measured at 253 nm. For the first 14 min. of the chromatographic run MP 1 was pumped at 0.5 ml/min. From 14 min. to 20 min. the column was switched to MP 2. At 20 min. the column was switched back to MP 1 and the flow rate increased to 1 ml/min. At 30 min. the flow rate was brought back to 0.5 ml/min. The run continued for a further 5 min. giving a total run time of 35 min. The amount of adriamycin present was quantified by measuring its peak area and the peak area of the IS. The peak area of the adriamycin was divided by the area of the IS peak and the ratio plotted against a concentration series for spiked adriamycin samples.
# DLKP cells = assay: Example 5 miniaturised in vitro cell toxicity assay, DLKP; type: cell-based, human
# Description: For the monolayer cell lines miniaturised in vitro assays were used to determine drug toxicity. On Day I cells were seeded at 1×10^3 cells/well in a 96-well plate and left to attach overnight. Drug was added on Day 2, and the assay was terminated on Day 7. Cell number was then evaluated by using one of two colorimetric end-point […]: the acid phosphatase assay (Martin, A., and Clynes, M. (1991); In vitro Cell and Development Biology, 27A: 183-184) or the crystal violet dye elution assay (Martin, A., and Clynes, M. (1993); Cytotechnology, 11:49-58). All assays were performed in triplicate.
# T1 sequence (P33527 whole entry): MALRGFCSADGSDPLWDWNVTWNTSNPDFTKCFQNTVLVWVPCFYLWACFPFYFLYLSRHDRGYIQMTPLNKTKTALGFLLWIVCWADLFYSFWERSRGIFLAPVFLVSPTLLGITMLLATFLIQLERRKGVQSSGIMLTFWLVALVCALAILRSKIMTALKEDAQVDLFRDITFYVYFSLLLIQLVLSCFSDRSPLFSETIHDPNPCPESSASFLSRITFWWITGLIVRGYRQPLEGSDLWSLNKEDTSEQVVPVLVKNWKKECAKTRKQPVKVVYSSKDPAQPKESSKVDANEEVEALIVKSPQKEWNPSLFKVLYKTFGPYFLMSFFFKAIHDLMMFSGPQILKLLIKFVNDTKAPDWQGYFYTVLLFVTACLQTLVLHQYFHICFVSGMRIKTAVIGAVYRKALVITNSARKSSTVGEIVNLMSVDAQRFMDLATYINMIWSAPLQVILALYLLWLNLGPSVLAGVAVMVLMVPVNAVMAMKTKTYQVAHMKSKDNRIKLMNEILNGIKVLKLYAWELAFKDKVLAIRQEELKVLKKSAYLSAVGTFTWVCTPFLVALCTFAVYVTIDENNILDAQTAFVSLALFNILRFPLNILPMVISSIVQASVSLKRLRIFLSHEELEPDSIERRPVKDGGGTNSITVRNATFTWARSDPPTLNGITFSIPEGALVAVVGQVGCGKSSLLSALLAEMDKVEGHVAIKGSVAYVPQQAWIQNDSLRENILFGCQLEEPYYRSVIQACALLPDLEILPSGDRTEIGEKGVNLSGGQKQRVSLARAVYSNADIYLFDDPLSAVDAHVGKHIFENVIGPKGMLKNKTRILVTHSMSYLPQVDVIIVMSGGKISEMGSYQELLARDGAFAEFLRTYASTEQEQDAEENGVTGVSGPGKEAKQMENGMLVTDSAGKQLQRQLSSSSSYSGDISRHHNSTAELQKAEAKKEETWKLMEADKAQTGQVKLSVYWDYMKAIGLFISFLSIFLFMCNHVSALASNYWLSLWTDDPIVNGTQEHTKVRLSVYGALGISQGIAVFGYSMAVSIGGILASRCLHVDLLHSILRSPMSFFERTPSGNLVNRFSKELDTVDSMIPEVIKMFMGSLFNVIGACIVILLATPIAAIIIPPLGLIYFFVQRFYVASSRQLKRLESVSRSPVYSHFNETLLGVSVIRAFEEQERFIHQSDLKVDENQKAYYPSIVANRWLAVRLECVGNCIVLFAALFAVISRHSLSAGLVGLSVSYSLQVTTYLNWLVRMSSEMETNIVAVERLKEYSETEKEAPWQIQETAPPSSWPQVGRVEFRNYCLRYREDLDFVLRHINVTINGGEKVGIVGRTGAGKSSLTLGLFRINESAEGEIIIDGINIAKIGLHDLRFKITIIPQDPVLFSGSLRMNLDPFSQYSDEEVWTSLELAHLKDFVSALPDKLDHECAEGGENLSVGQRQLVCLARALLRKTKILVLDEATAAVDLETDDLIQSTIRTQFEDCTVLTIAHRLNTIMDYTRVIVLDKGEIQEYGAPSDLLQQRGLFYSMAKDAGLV
structure (smiles),measurement,setting,value
c1ccc([C@H]2CN3CCSC3=N2)cc1 [Levamisole],% Inhibition of GST,[1]; 1 mM,0%
CC(C(=O)O)c1cccc(C(=O)c2ccccc2)c1 (centres unmarked) [Ketoprofen],% Inhibition of GST,[1]; 1 mM,11.2%
"Cc1cc(CC(=O)O)n(C)c1C(=O)c1ccc(Cl)cc1 [Zomepirac, zomepirac]",enhancement of toxicity of MRP substrates,MRP-specific substrates,have been found to enhance the toxicity of MRP-specific substrates
same,% Inhibition of GST,[1]; 0.25 mM,56%
same,% cell survival,"A549 cell line; xv) Zomepirac 20.70 μg/ml, alone or + Adriamycin 15 ng/ml",96.79 ± 12.10%
same,% cell survival,"A549 cell line; xv) Zomepirac 38.80 μg/ml, alone or + Adriamycin 15 ng/ml",94.89 ± 13.91%
"O.O.O.O=C([O-])[C@H]([O-])[C@@H]([O-])C(=O)[O-].O=C([O-])[C@H]([O-])[C@@H]([O-])C(=O)[O-].[K+].[K+].[Sb+3].[Sb+3] [Potassium Antimonyl Tartrate, Potassium antimonyl tartrate]",% cell survival,DLKP cell line; vii) Potassium Antimonyl Tartrate 1.5 μg/ml alone,39.98 ± 3.3%
COc1ccc2cc([C@H](C)C(=O)O)ccc2c1 [Naproxen],% Inhibition of GST,[1]; 1 mM,17%
same,MRP-pump inhibitory activity,MRP pump,do not
"O=c1[nH]cc(F)c(=O)[nH]1 [5-FU, 5-flurouracil]",% cell survival,DLKP cell line; iv) 5-FU 0.5 μg/ml alone,66.18 ± 1.4%
"CSc1ccc(/C=C2/C(C)=C(CC(=O)O)c3cc(F)ccc32)cc1 [Sulindac sulfide, sulindac sulfide]",% cell survival,"A549 cell line; xii) Sulindac sulfide 1.40 μg/ml, alone or + Adriamycin 15 ng/ml",105.83 ± 6.50%
same,% cell survival,"A549 cell line; xii) Sulindac sulfide 2.70 μg/ml, alone or + Adriamycin 15 ng/ml",104.91 ± 5.57%
same,% cell survival,"A549 cell line; xii) Sulindac sulfide 6.00 μg/ml, alone or + Adriamycin 15 ng/ml",90.19 ± 9.63%
O=C(O)c1ccccc1Nc1cccc(C(F)(F)F)c1 [Flufenamic Acid],% Inhibition of GST,[1]; 0.75 mM,41.2%
CN1C(C(=O)Nc2ccccn2)=C(O)c2ccccc2S1(=O)=O [Piroxicam],enhancement of toxicity of MRP substrates,MRP-specific substrates,negative
same,% Adriamycin content at 0 h,"DLKP-7 cells; cells loaded with adriamycin 0.5 μg/ml 2 h, indomethacin 10 μg/ml, piroxicam 20 μg/ml, 0 h",100%
same,% Adriamycin content at 4 h,"DLKP-7 cells; cells loaded with adriamycin 0.5 μg/ml 2 h, indomethacin 10 μg/ml, piroxicam 20 μg/ml, 4 h",67 ± 10%
same,level of adriamycin within the treated cells,DLKP-7 cells; during the 4 hours of the experiment,gradually decreased
same,inhibition at 302 µM,MRP pump; 0.302 mM,0%
same,MRP-pump inhibitory activity,MRP pump,do not
"CC1=C(CC(=O)O)c2cc(F)ccc2/C1=C\c1ccc(S(C)(=O)=O)cc1 [Sulindac sulfone, sulindac sulfone]",% cell survival,"A549 cell line; xiii) Sulindac sulfone 4.50 μg/ml, alone or + Adriamycin 15 ng/ml",101.87 ± 10.52%
same,% cell survival,"A549 cell line; xiii) Sulindac sulfone 8.90 μg/ml, alone or + Adriamycin 15 ng/ml",102.21 ± 8.88%
same,% cell survival,"A549 cell line; xiii) Sulindac sulfone 19.50 μg/ml alone, or (printed 19.50 mg/ml) + Adriamycin 15 ng/ml",76.77 ± 6.49%
"Cc1cccc(Nc2ccccc2C(=O)O)c1C [Mefenamic acid, mefenamic acid]",% cell survival,"A549 cell line; x) Mefenamic acid 2.30 μg/ml, alone or + Adriamycin 15 ng/ml",98.49 ± 7.66%
same,% cell survival,"A549 cell line; x) Mefenamic acid 4.00 μg/ml, alone or + Adriamycin 15 ng/ml",95.38 ± 9.21%
same,% cell survival,"A549 cell line; x) Mefenamic acid 7.90 μg/ml, alone or + Adriamycin 15 ng/ml",85.23 ± 7.80%
CC(C)Cc1ccc(C(C)C(=O)O)cc1 (centres unmarked) [Ibuprofen],% Inhibition of GST,[1]; 1 mM,18.5%
same,% cell survival,"A549 cell line; xvi) Ibuprofen 3.06 μg/ml, alone or + Adriamycin 17 ng/ml",100.37 ± 7.94%
same,% cell survival,"A549 cell line; xvi) Ibuprofen 7.92 μg/ml, alone or + Adriamycin 17 ng/ml",96.78 ± 11.43%
same,% cell survival,"A549 cell line; xvi) Ibuprofen 15.72 μg/ml, alone or + Adriamycin 17 ng/ml",95.58 ± 8.50%
CCc1cccc2c3c([nH]c12)C(CC)(CC(=O)O)OCC3 (centres unmarked) [etodolac],enhancement of toxicity of MRP substrates,MRP-specific substrates,does not exhibit the enhanced cytotoxicity
"COc1cccc2c1C(=O)c1c(O)c3c(c(O)c1C2=O)C[C@@](O)(C(=O)CO)C[C@@H]3O[C@H]1C[C@H](N)[C@@H](O)[C@H](C)O1 [Epirubicin, epirubicin]",% cell survival,DLKP cells; Epirubicin 1 ng/ml alone,69.08 ± 3.6%
O=C(O)CCC(=O)c1ccc(-c2ccccc2)cc1 [Fenbufen],% Inhibition of GST,[1]; 1 mM,15.6%
O=C(O)Cc1ccccc1Nc1c(Cl)cccc1Cl [Diclofenac],% Inhibition of GST,[1]; 0.75 mM,54%
"COc1cc([C@@H]2c3cc4c(cc3[C@@H](O[C@@H]3O[C@@H]5CO[C@@H](c6cccs6)O[C@H]5[C@H](O)[C@H]3O)[C@H]3COC(=O)[C@H]23)OCO4)cc(OC)c1O [Teniposide, teniposide]",% cell survival,DLKP cells; Teniposide 6.25 ng/ml alone,79.79 ± 0.97%
"COc1ccc2c(c1)c(CC(=O)OCC(=O)O)c(C)n2C(=O)c1ccc(Cl)cc1 [Acemetacin, acemetacin]",enhancement of toxicity of MRP substrates,MRP-specific substrates,have been found to enhance the toxicity of MRP-specific substrates
same,% Inhibition of GST,[1]; 0.25 mM,58%
same,% cell survival,"A549 cell line; viii) Acemetacin 11.50 μg/ml, alone or + Adriamycin 15 ng/ml",102.08 ± 8.76%
same,% cell survival,"A549 cell line; viii) Acemetacin 19.20 μg/ml, alone or + Adriamycin 15 ng/ml",97.30 ± 8.46%
same,% cell survival,"A549 cell line; viii) Acemetacin 37.50 μg/ml, alone or + Adriamycin 15 ng/ml",85.04 ± 10.13%
CC(C(=O)O)c1cccc(Oc2ccccc2)c1 (centres unmarked) [Fenoprofen],% Inhibition of GST,[1]; 1 mM,22.5%
